In data set [1] the target is T1, OATP1B3 (Homo sapiens, UniProt Q9NPD5).
T1 sequence (Q9NPD5 1-702): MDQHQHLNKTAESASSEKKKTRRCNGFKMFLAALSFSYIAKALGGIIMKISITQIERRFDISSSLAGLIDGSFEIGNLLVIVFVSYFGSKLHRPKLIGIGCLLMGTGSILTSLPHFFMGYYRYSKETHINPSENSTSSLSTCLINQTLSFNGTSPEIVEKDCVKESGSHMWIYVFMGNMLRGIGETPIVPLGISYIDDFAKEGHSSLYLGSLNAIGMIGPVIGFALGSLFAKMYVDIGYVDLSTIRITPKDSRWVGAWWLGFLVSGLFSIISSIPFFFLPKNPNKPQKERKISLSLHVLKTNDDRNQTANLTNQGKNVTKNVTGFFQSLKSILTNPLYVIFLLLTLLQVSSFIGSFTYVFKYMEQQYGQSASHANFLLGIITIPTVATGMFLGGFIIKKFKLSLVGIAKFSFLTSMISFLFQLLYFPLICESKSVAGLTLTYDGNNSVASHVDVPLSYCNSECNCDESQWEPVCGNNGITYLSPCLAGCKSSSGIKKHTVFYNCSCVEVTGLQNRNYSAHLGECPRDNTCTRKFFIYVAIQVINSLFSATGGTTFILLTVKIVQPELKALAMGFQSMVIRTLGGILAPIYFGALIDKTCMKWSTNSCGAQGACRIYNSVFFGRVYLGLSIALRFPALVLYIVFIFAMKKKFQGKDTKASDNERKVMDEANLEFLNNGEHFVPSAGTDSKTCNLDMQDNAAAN
Kind of data set: Substrate uptake and transport kinetics in CHO cells stably expressing OATP1B3.

Data set [2] concerns the target T2, OATP1B1 (Homo sapiens, UniProt Q9Y6L6). Nature of the data set: Substrate uptake and transport kinetics in CHO cells stably expressing OATP1B1.
In data set [3] the target is T3, OATP2B1 (Homo sapiens, UniProt O94956).
T3 sequence (O94956 1-709): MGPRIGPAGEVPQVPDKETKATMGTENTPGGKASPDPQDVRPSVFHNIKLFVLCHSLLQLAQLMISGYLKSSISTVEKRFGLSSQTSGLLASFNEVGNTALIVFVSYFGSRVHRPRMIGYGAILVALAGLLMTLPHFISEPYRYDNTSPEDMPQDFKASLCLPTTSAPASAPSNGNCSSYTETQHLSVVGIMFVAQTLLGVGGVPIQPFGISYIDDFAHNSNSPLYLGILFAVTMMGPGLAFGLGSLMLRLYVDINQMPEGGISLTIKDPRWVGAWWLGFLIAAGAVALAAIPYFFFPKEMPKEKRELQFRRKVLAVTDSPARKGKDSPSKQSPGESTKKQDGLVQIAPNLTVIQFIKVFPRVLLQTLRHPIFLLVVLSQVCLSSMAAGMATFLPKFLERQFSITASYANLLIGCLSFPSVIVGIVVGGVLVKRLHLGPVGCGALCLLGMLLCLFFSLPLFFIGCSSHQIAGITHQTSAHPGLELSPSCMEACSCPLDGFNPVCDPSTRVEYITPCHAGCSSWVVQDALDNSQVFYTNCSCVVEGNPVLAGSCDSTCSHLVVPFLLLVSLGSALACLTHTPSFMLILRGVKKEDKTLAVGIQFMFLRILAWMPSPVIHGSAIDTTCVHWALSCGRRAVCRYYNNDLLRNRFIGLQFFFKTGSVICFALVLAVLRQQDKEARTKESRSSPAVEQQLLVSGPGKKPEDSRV
Kind of data set: Substrate uptake in CHO cells stably expressing OATP2B1. The format is cell-based. The conditions noted are these: 2 μM substrate, five minute accumulation, CHOvector = 1.

Data set [4] has as its target T2, OATP1B1. To be noted: 10 μM 8-FcA, 20 minutes.
For data set [5] the following is noted: stated in the introduction without data or own reference; cited from earlier work.
The next data set concerns the target T4, OCT1 (Homo sapiens, UniProt O15245).
T4 sequence (O15245 1-554): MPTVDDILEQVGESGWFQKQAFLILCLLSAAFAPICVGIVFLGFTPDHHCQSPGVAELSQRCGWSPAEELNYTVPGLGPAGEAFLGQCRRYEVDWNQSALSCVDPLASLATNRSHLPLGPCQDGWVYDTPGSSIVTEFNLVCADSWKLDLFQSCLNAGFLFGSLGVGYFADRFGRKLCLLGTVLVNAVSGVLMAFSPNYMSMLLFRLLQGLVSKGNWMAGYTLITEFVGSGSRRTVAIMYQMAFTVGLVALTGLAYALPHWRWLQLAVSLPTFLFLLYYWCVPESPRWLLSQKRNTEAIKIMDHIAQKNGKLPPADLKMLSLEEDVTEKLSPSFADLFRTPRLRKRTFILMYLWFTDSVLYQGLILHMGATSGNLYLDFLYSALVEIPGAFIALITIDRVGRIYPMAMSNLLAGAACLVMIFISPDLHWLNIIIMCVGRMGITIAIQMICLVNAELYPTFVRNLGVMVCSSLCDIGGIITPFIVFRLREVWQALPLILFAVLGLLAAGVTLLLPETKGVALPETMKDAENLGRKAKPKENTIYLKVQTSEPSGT
Kind of data set: Cellular accumulation in CHO cells transiently transfected with OCT1. The format is cell-based. To be noted: 10 μM 8-FcA, 20 minutes.

Data set [6] deals with T1, OATP1B3. Kind of data set: Cellular accumulation in CHO cells transiently transfected with OATP1B3. To be noted: 10 μM 8-FcA, 20 minutes.
Data set [7] has as its target T3, OATP2B1. Nature of the data set: Cellular accumulation in CHO cells transiently transfected with OATP2B1. In kind it is cell-based. The conditions noted are these: 10 μM 8-FcA, 20 minutes.
Setting [8] is: 2 μM substrate, five minute accumulation, CHOvector = 1.
Setting [9] is: 8-FcA 0.25-25 μM, 10 min uptake, CHOvector subtracted, mean ± standard error.

Molecules are shown by their SMILES. Values joined by “and” are separate entries in the source; they are usually repeats but may differ in a detail not shown here. Identical values can stand only once.

T2 sequence (Q9Y6L6 whole entry): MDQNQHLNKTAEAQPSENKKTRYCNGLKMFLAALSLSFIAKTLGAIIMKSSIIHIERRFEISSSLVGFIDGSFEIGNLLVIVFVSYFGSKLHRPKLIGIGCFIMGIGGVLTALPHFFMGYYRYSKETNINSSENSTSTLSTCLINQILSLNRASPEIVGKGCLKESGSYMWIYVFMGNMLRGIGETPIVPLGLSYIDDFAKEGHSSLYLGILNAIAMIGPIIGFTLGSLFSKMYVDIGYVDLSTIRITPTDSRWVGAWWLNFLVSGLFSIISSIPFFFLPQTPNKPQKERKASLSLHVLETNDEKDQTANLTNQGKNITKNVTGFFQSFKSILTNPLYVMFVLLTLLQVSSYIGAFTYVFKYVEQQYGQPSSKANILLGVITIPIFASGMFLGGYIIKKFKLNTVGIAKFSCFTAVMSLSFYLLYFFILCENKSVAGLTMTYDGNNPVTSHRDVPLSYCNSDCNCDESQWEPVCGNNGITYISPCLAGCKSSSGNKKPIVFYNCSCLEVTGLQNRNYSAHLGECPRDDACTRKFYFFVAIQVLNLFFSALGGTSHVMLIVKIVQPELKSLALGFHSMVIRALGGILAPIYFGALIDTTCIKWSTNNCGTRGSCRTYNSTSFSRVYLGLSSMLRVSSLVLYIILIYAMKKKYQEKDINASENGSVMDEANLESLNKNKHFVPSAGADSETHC

On to `Nc1ncnc2c1nc(SCCNC(=S)Nc1ccc(-c3c4ccc(=O)cc-4oc4cc(O)ccc34)c(C(=O)O)c1)n2[C@@H]1O[C@@H]2COP(=O)(O)O[C@H]2[C@H]1O` [8-FcA, 8-(2-[Fluoresceinyl]aminoethylthio) adenosine-3', 5'-cyclic monophosphate], for which, at OATP1B3 [1], the “transport efficiency, Vmax/Km (OATP1B3)” value was determined as 0.183 μL/min/cm^2. Moreover, on OATP1B3 [1] (setting [8]), the “cellular accumulation relative to control, CHOOATP1B3” value was “robust accumulation”. Further, at OATP1B3 [1] (setting [9]), the “Vmax of OATP1B3-mediated transport” value was 0.33 pmol/min/cm^2 and 0.33±0.02 pmol/min/cm^2. Moreover, the “transport efficiency, Vmax/Km (OATP1B1)” value at OATP1B1 [2] is given as 0.069 μL/min/cm^2. Also, the “cellular accumulation relative to control, CHOOATP1B1” value at OATP1B1 [2] (setting [8]) is reported as “robust accumulation”. Further, on OATP1B1 [2] (setting [9]), the “Vmax of OATP1B1-mediated transport” value was 0.20 pmol/min/cm^2 and 0.20±0.01 pmol/min/cm^2. Moreover, the “cellular accumulation relative to control, CHOOATP2B1” value on OATP2B1 [3] is reported as “not statistically different from that of CHOvector”. Further, the “cellular accumulation by fluorescence microscopy, OATP1B1” value on OATP1B1 [4] was “readily accumulated”. Besides, the aqueous solubility entry in data set [5] is “very high aqueous solubility”. In addition, on OCT1, the “cellular accumulation by fluorescence microscopy, OCT1” value was “negative”. For the same molecule, the “cellular accumulation by fluorescence microscopy, OATP1B3” value on OATP1B3 [6] is on record as “readily accumulated”. Further, the “cellular accumulation by fluorescence microscopy, OATP2B1” value at OATP2B1 [7] is listed as “negative”.

The record behind these values is publication PMC2919811 (Analytical biochemistry, 2010).
